Data: the NIST ThermoML archive (doi:10.1021/je9009442)

Experiment: wn = mass fraction of the nth substance listed
Conditions: Liquid, inclined tube viscometer, w1 = 0.505

FC(F)C(F)(F)F [pentafluoroethane] + FCF
Conditions	kinematic viscosity [m2/s]
256.15 K	1.72e-07
258.15 K	1.685e-07
260.15 K	1.652e-07
262.15 K	1.619e-07
264.15 K	1.587e-07
266.15 K	1.556e-07
268.15 K	1.526e-07
270.15 K	1.497e-07
272.15 K	1.468e-07
274.15 K	1.44e-07
276.15 K	1.413e-07
278.15 K	1.386e-07
280.15 K	1.36e-07
282.15 K	1.335e-07
284.15 K	1.31e-07
286.15 K	1.285e-07
288.15 K	1.262e-07
290.15 K	1.238e-07
292.15 K	1.215e-07
294.15 K	1.193e-07
296.15 K	1.171e-07
298.15 K	1.15e-07
300.15 K	1.129e-07
302.15 K	1.108e-07
304.15 K	1.088e-07
306.15 K	1.068e-07
308.15 K	1.048e-07
310.15 K	1.029e-07
312.15 K	1.01e-07
314.15 K	9.92e-08
316.15 K	9.73e-08
318.15 K	9.55e-08
320.15 K	9.38e-08
322.15 K	9.2e-08
324.15 K	9.03e-08
326.15 K	8.86e-08
328.15 K	8.7e-08
330.15 K	8.53e-08
332.15 K	8.37e-08
334.15 K	8.21e-08
336.15 K	8.06e-08
